The values below are quoted from earlier work in publication PMC3005221 (Biochemistry, 2010).

The target in the data set is HDAC6 BUZ domain. The note with it: read-out: KD for HDAC6 BUZ domain (reported); full-length ubiquitin.

As to ubiquitin, the dissociation constant Kd is 60 nM.
